{
  "source": "patent US11427590B2",
  "about": "“Small molecule inhibitors of neutral sphingomyelinase 2 (nSMase2) for the treatment of neurodegenerative diseases” (The Johns Hopkins University, priority 2017, dated 2022)",
  "key": {"[1]": {"conditions": "background statement on known inhibitor; cited from earlier work"}, "[2]": {"test": "Pharmacokinetics, plasma and brain levels in mice", "protocol": "Blood was obtained via cardiac puncture and brain tissue was dissected at 0.25, 0.5, 1, 2, 4, 6 and 8 h post dose (n=3 per gender and time point). Plasma was harvested from blood by centrifugation. Subsequently, samples were extracted from plasma and brain by a one-step protein precipitation using acetonitrile followed by vortexing for […] and centrifugation (10,000 g for 10 min) as we have described previously. Rais, et al. Once extracted, the samples were reconstituted into a mobile phase and analyzed via LC/MS/MS. Plasma concentrations (nM) as well as tissue concentrations (pmol/g) were determined and plots of mean plasma concentration vs. time were constructed for PK analysis. Non-compartmental-analysis modules in WinNonlin® (version 5.3) were used to assess pharmacokinetic parameters including maximal concentration (Cmax), time to Cmax (Tmax), area under the curve extrapolated to infinity (AUC0-∞) and brain-to-plasma (B/P) ratios."}, "[3]": {"tested_on": "panel of 44 selected targets"}, "[4]": {"target": "acid sphinghomyelinase (Homo sapiens (Human), UniProt P17405)", "sequence (P17405 47-631)": "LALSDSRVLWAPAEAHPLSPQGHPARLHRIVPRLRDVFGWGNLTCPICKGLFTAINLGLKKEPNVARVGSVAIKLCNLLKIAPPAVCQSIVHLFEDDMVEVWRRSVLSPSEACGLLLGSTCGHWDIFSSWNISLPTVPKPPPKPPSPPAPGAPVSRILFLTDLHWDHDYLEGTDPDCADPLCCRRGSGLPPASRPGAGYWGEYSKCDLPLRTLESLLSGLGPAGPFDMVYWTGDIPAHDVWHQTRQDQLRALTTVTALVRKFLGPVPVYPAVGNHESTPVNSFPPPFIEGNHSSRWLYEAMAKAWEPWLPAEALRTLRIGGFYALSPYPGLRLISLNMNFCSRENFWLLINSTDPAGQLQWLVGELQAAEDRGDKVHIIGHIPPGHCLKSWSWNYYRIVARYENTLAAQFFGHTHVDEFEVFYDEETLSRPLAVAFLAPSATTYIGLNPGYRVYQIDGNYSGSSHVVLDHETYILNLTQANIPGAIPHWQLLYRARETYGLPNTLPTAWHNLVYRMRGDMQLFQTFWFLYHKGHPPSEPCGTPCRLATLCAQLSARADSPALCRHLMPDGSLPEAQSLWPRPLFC", "test": "Inhibition of related enzyme acid sphingomyelinase", "type": "biochemical", "conditions": "related enzyme (phosphodiesterase)"}, "[5]": {"test": "Phase I metabolic stability in human liver microsomes", "type": "in vitro ADME", "conditions": "37° C.", "protocol": "Phase I metabolic stability in both mouse and human liver microsomes was performed as described previously. Rais et al. Briefly, compounds are spiked in liver microsomes (mouse, human) and incubated in an orbital shaker at 37° C. […] Compound disappearance is monitored over time using LC/MS/MS."}, "[6]": {"tested_on": "alkaline phosphatase", "test": "Inhibition of related enzyme alkaline phosphatase", "conditions": "related enzyme (phosphomonoesterase)", "description": "Phosphorylcholine undergoes dephosphorylation in a reaction catalyzed by alkaline phosphatase (4 U/mL) to produce choline which in turn is oxidized by choline oxidase (0.1 U/mL) to betaine and hydrogen peroxide (H2O2). Hydrogen peroxide is made to react with Amplex red (50 μM) in the presence of horseradish peroxidase (HRP, 1 U/mL) to generate the fluorescent molecule resorufin. Generation of fluorescence is monitored by measuring relative florescence units (RFU) with excitation at 530 nm and emission at 590 nm. Extent of fluorescence is directly proportional to the extent of SM hydrolysis. Substrate stock solution is prepared in 2% Triton X-100 and sonicated for 1 min. Reactions are carried out for 1 h at 37° C. in 100 mM Tris-HCl pH 7.4, 10 mM MgCl2, 0.2% Triton X-100. This assay has been optimized in 384-well format (50 μL total volume per well) under conditions where nSMase2-catalyzed hydrolysis of SM is linear with respect to nSMase2 concentration, time of incubation and SM concentration (FIGS. 3A-3C). The assay has high reliability (Z′=0.8-0.9). It is used for compound screening, IC50 determinations and mode of inhibition studies. IC50 determinations are carried out in duplicate eight-point dose response curves. A counter screen is concomitantly carried out to identify false positives resulting from inhibition of the coupling enzymes. […]"}, "[7]": {"tested_on": "GFAP-GFP mice", "test": "Inhibition of exosome release in vivo after striatal IL-1β injection", "conditions": "mouse", "protocol": "Striatal injections of IL-1β and exosome measurements are performed as previously described by our group in adult (2-3 month) male GFAP-GFP mice (Jackson Laboratories). Dickens, et al.; McCluskey, et al. Mice are anesthetized with 3% Isoflourane (Baxter) in oxygen (Airgas), and placed in a stereotaxic frame (Stoelting Co.). A small burr hole is drilled in the skull over the left striatum using a dental drill (Fine Scientific Tools). IL1β (0.1 ng/3 μl) is injected (total volume of 3 μl) at the rate 0.5 μl/min via a pulled glass capillary tip diameter <50 μm using the stereotaxic coordinates: A/P+1; M/L-2; -3 D/V. Following infusion, the capillary is held in place for 5 min to allow for solution to diffuse into the tissue. Animals are sacrificed at 2, 12 or 24 h by an overdose of anesthetic, and transcardially perfused with ice-cold saline containing heparin (20 μl per 100 ml, Sigma). Blood is rapidly isolated and flash frozen. […]\nGFAP-GFP mice that release green EVs from astrocytes into the systemic circulation were used so that exosome release from astrocytes in plasma can be followed. […] The concentration of immunoprecipitated GFP+ EVs is quantified using ZetaView nanoparticle tracking analysis (Particle Metrix) as described in the cell-based exosome release. […]"}, "[8]": {"tested_on": "rat astrocytes", "test": "Inhibition of exosome release from primary astrocytes in vitro", "type": "cell-based", "conditions": "0.3-10 μM, 2 h after treatment, vs DMSO (0.02%)", "protocol": "The effect of nSMase2 inhibitors on the manufacturing and release of ceramide rich exosomes from primary astrocytes was investigated as previously described. Dickens, et al. Briefly, rat astrocytes are seeded onto 6-well plates at a density of 20,000 cells/well. Twenty-four hours after seeding, astrocytes are washed with PBS and the medium changed to media without FBS. Absence of FBS mimics a trophic factor withdrawal stimulus causing the release of exosomes via a nSMase2-dependent pathway. Astrocytes are then treated with nSMase2 inhibitors at concentrations in the range 0.03-30 μM. DMSO (0.02%) is used as control. Two hours after treatment, media is collected and centrifuged at 2700 g for 15 min (4° C.). Supernatant is further centrifuged at 10,000 g for 15 min (4° C.) to remove large particles such as apoptotic bodies. Astrocyte-derived extracellular vesicles (EVs) are isolated via ultracentrifugation at 100,000 g for 3 h at 4° C. Fractions containing EV are washed twice with 5 ml PBS and the final pellet resuspended in PBS. This isolation procedure results in the isolation of EVs with a narrow size range and protein markers consistent with exosomes. Dickens, et al. The number of EVs is quantified using ZetaView Nanoparticle Tracker (Particle Metrix GmBH, Meerbusch, Germany) and the corresponding ZetaVeiw software (8.03.04.01). Nanosphere size standard 100 nm (Thermo Scientific) is used to calibrate the instrument prior to sample readings. For each sample 1 mL of the supernatant is injected into the sample-carrier cell and the particle count measured at 5 positions, with 2 cycles of reading per position. Cells are washed with PBS after every sample. Mean concentration of EVs/mL (±SEM) is calculated from 6 replicates. This screening assay is reliable with a Z′=0.75.\nReferring now to FIG. 4A and FIG. 4B, the ability of compound 38 and several of its analogs to inhibit exosome release in vitro was evaluated as previously described. […] Two hours after treatment, exosomes were isolated from the media and quantified using ZetaView Nanoparticle Tracker. The mean concentration of exosomes (EVs/mL±SEM) was calculated from 6 replicate experiments (see FIG. 4). […] Baseline exosome release can be variable between experiments; as a result, inhibition is always compared relative to vehicle treatment within the same experiment. Structures of compounds with their corresponding IC50s are provided in the second row of FIG. 4."}},
  "data": [
    {"smiles": "O=C(/C=C/c1ccc(/C=C/C(=O)Nc2ccc(C3=NCCN3)cc2)cc1)Nc1ccc(C2=NCCN2)cc1", "note": "[GW4869]", "values": [
      {"measurement": "solubility", "setting": "[1]", "value": "poor solubility"}
    ]},
    {"smiles": "COc1ccc(-c2c(C)nc3c(N4CC[C@@H](NC(=O)Oc5ccccc5)C4)cc(C)nn23)cc1OC", "note": "[compound 38, Phenyl (R)-(1-(3-(3,4-dimethoxyphenyl)-2,6-dimethylimidazo[1,2-b]pyridazin-8-yl)pyrrolidin-3-yl) carbamate]", "values": [
      {"measurement": "systemic exposure", "setting": "[2]; 10 mg/kg i.p.", "value": "high systemic exposures"},
      {"measurement": "brain exposure", "setting": "[2]; 10 mg/kg peroral", "value": "high brain exposures"},
      {"measurement": "plasma exposure", "setting": "[2]; 10 mg/kg peroral", "value": "high plasma exposures"},
      {"measurement": "inhibition of positive hits", "setting": "[3]; 10 μM, all positive hits", "value": "less than 100%"},
      {"measurement": "segregation in potency between off targets and nSMase2", "setting": "[3]; off targets vs nSMase2", "value": "≥ 20", "unit": "fold"},
      {"measurement": "inhibition of acid sphinghomyelinase", "setting": "[4]", "value": "not inhibiting"},
      {"measurement": "Human Liver Microsome (+) NADPH Remaining at 60 min", "setting": "[5]", "value": "103 ± 14", "unit": "%"},
      {"measurement": "inhibition of alkaline phosphatase", "setting": "[6]", "value": "not inhibiting"},
      {"measurement": "exosomes in plasma after striatal IL-1β injection", "setting": "[7]", "value": "significantly reduced the increased exosomes"},
      {"measurement": "exosome release from astrocytes", "setting": "[8]", "value": "decreased the number of exosomes released from astrocytes in a dose dependent manner"}
    ]}
  ]
}
